According to US8691800B2, “Quinoline derivatives as antibacterial agents” (Janssen Pharmaceutica N.V., priority 2005, dated 2014):
Converted amounts (≈) assume the structure as drawn.

Legend:
[1] = tested on: Streptococcus mutans (ATCC33402); assay: Microtitre plate assay, IC90 for bacterial growth; assay type: cell-based; conditions: Streptococcus mutans, ATCC33402, 90% inhibitory concentration for bacterial growth, read-out: IC90 SMU 33402
Method: (§1) The bacteria used in this study were grown overnight in flasks containing 100 ml Mueller-Hinton Broth (Becton Dickinson—cat. no. 275730) in sterile de-ionized water, with shaking, at 37° C. Stocks (0.5 ml/tube) were stored at 70° C. until use. Bacteria titrations were performed in microtiter plates and colony forming units (CFUs) were determined. In general, an inoculum level of approximately 100 CFUs was used for susceptibility testing.
(§2) Anti bacterial Susceptibility Testing: IC90 Determination
(§3) Flat-bottom, sterile 96-well plastic microtiter plates were filled with 180 μl of sterile deionized water, supplemented with 0.25% BSA. Subsequently, stock solutions (7.8× final test concentration) of compounds were added in 45 μl volumes in column 2. Serial five-fold dilutions (45 μl in 180 μl) were made directly in the microtiter plates from column 2 to reach column 11. Untreated control samples with (column 1) and without (column 12) inoculum were included in each microtiter plate. Depending on the bacteria type, approximately 10 to 60 CFU per well of bacteria inoculum (100 TCID50), in a volume of 100 μl in 2.8× Mueller-Hinton broth medium, was added to the rows A to H, except column 12. The same volume of broth medium without inoculum was added to column 12 in row A to H. The cultures were incubated at 37° C. for 24 hours under a normal atmosphere (incubator with open air valve and continuous ventilation). At the end of incubation, one day after inoculation, the bacterial growth was quantitated fluorometrically. Therefore resazurin (0.6 mg/ml) was added in a volume of 20 μl to all wells 3 hours after inoculation, and the plates were re-incubated overnight. A change in colour from blue to pink indicated the growth of bacteria. The fluorescence was read in a computer-controlled fluorometer (Cytofluor Biosearch) at an excitation wavelength of 530 nm and an emission wavelength of 590 nm. The % growth inhibition achieved by the compounds was calculated according to standard methods. The IC90 (expressed in μg/ml) was defined as the 90% inhibitory concentration for bacterial growth.

[2] = tested on: Staphylococcus aureus (ATCC29213); assay: Microtitre plate assay, IC90 for bacterial growth; assay type: cell-based; conditions: 90% inhibitory concentration for bacterial growth, 24 hours at 37° C., resazurin; for IC90: Staphylococcus aureus, ATCC29213, 24 h, read-out: IC90 STA 29213
Method: as §1, §2, §3

[3] = tested on: methicilline resistant Staphylococcus aureus (MRSA) (a clinical isolate from the University of Antwerp); assay: Microtitre plate assay, IC90 for bacterial growth; assay type: cell-based; conditions: 90% inhibitory concentration for bacterial growth; for IC90: Staphylococcus aureus, MRSA, read-out: IC90 STA RMETHIC
Method: as §1, §2, §3

[4] = tested on: Pseudomonas aeruginosa (ATCC27853); assay: Microtitre plate assay, IC90 for bacterial growth; assay type: cell-based; conditions: for IC90 PAE 27853: 90% inhibitory concentration for bacterial growth; for IC90: Pseudomonas aeruginosa, ATCC27853, 90% inhibitory concentration for bacterial growth, read-out: IC90 PAE 27853
Method: as §1, §2, §3

[5] = tested on: Staphylococcus aureus (ATCC25923); assay: Microtitre plate assay, IC90 for bacterial growth; assay type: cell-based; conditions: for IC90: Staphylococcus aureus, ATCC25923, 90% inhibitory concentration for bacterial growth, read-out: IC90 STA 25923; for IC90 STA 25923: 90% inhibitory concentration for bacterial growth
Method: as §1, §2, §3

[6] = tested on: Listeria monocytogenes (ATCC49594); assay: Microtitre plate assay, IC90 for bacterial growth; assay type: cell-based; conditions: for IC90: Listeria monocytogenes, ATCC49594, 90% inhibitory concentration for bacterial growth, read-out: IC90 LMO 49594; for IC90 LMO 49594: 90% inhibitory concentration for bacterial growth
Method: as §1, §2, §3

[7] = tested on: Streptococcus pyogens (ATCC8668); assay: Microtitre plate assay, IC90 for bacterial growth; assay type: cell-based; conditions: for IC90 SPY 8668: 90% inhibitory concentration for bacterial growth; for IC90: Streptococcus, ATCC8668, 90% inhibitory concentration for bacterial growth, read-out: IC90 SPY 8668
Method: as §1, §2, §3

[8] = tested on: Streptococcus pneumoniae (ATCC6305); assay: Microtitre plate assay, IC90 for bacterial growth; assay type: cell-based; conditions: for IC90 SPN 6305: 90% inhibitory concentration for bacterial growth; for IC90: Streptococcus pneumoniae, ATCC6305, 90% inhibitory concentration for bacterial growth, read-out: IC90 SPN 6305
Method: as §1, §2, §3

[9] = tested on: Bacillus subtilis (ATCC43639); assay: Microtitre plate assay, IC90 for bacterial growth; assay type: cell-based; conditions: for IC90: Bacillus subtilis, ATCC43639, 90% inhibitory concentration for bacterial growth, read-out: IC90 BSU 43639; for IC90 BSU 43639: 90% inhibitory concentration for bacterial growth
Method: as §1, §2, §3

[10] = tested on: Enterococcus faecalis (ATCC29212); assay: Microtitre plate assay, IC90 for bacterial growth; assay type: cell-based; conditions: for IC90 EFA 29212: 90% inhibitory concentration for bacterial growth; for IC90: Enterococcus faecalis, ATCC29212, 90% inhibitory concentration for bacterial growth, read-out: IC90 EFA 29212
Method: as §1, §2, §3

melting point [°C]	IC90 [1] [µg/mL]	IC90 STA 29213 [2] [µg/mL]	IC90 PAE 27853 [4] [µg/mL]	IC90 [5] [µg/mL]	IC90 [6] [µg/mL]	IC90 SPY 8668 [7] [µg/mL]	IC90 SPN 6305 [8] [µg/mL]	IC90 [9] [µg/mL]	IC90 EFA 29212 [10] [µg/mL]	IC90 STA 25923 [5] [µg/mL]	IC90 LMO 49594 [6] [µg/mL]	IC90 BSU 43639 [9] [µg/mL]	IC90 [7] [µg/mL]	IC90 [8] [µg/mL]	IC90 [2] [µg/mL]	IC90 [4] [µg/mL]	IC90 [10] [µg/mL]	Structure (SMILES)	IC90 [3] [µg/mL]	IC90 STA RMETHIC [3] [µg/mL]
				13.6 (≈ 25.2 µM)			2.7 (≈ 4.99 µM)	13.6 (≈ 25.2 µM)					13.6 (≈ 25.2 µM)		13.6 (≈ 25.2 µM)	13.6 (≈ 25.2 µM)	13.6 (≈ 25.2 µM)	COc1nc2ccc(-c3ccco3)cc2cc1C(c1ccccc1)C1(c2cccc3ccccc23)CCN(C)CO1 (single isomer, unassigned) [Compound 6]		54.1 (≈ 100 µM)
108		13.9 (≈ 25.1 µM)	13.9 (≈ 25.1 µM)			13.9 (≈ 25.1 µM)	13.9 (≈ 25.1 µM)		13.9 (≈ 25.1 µM)									COc1nc2ccc(Br)cc2cc1C(c1ccccc1)C1(c2cccc3ccccc23)CCN(C)CO1 (single isomer, unassigned) [Compound 7]		
				55.1 (≈ 100 µM)	55.1 (≈ 100 µM)			55.1 (≈ 100 µM)					55.1 (≈ 100 µM)	4.9 (≈ 8.9 µM)	55.1 (≈ 100 µM)	55.1 (≈ 100 µM)	55.1 (≈ 100 µM)	COc1nc2ccc(-c3ccccc3)cc2cc1C(c1ccccc1)C1(c2cccc3ccccc23)CCN(C)CO1 (single isomer, unassigned) [Compound 9]	55.1 (≈ 100 µM)	

Second part, the compound before the results:

Structure (SMILES)	melting point [°C]	IC90 [1] [µg/mL]	IC90 STA 29213 [2] [µg/mL]	IC90 PAE 27853 [4] [µg/mL]	IC90 [5] [µg/mL]	IC90 [6] [µg/mL]	IC90 SPY 8668 [7] [µg/mL]	IC90 SPN 6305 [8] [µg/mL]	IC90 [9] [µg/mL]	IC90 EFA 29212 [10] [µg/mL]	IC90 STA 25923 [5] [µg/mL]	IC90 LMO 49594 [6] [µg/mL]	IC90 BSU 43639 [9] [µg/mL]	IC90 [7] [µg/mL]	IC90 [8] [µg/mL]	IC90 [2] [µg/mL]	IC90 [4] [µg/mL]	IC90 [10] [µg/mL]	IC90 [3] [µg/mL]	IC90 STA RMETHIC [3] [µg/mL]
COc1nc2ccc(Br)cc2cc1C(c1ccccc1)C1(c2cccc3ccccc23)CCN(C)CO1 (single isomer, unassigned) [Compound 1]	112	44 (≈ 79.5 µM)	55.4 (≈ 100 µM)	44.0 (≈ 79.5 µM)	55.4 (≈ 100 µM)	44 (≈ 79.5 µM)	44.0 (≈ 79.5 µM)	5.5 (≈ 9.94 µM)	44 (≈ 79.5 µM)	55.4 (≈ 100 µM)									55.4 (≈ 100 µM)	
COc1nc2ccc(-c3ccccc3)cc2cc1C(c1ccccc1)C1(c2cccc3ccccc23)CCN(C)CO1 (single isomer, unassigned) [Compound 2]			55.1 (≈ 100 µM)	55.1 (≈ 100 µM)			55.1 (≈ 100 µM)	5.5 (≈ 9.99 µM)		55.1 (≈ 100 µM)	55.1 (≈ 100 µM)	55.1 (≈ 100 µM)	55.1 (≈ 100 µM)							55.1 (≈ 100 µM)
COc1nc2ccc(Cl)cc2cc1C(c1ccccc1)C1(c2cccc3ccccc23)CCN(C)CO1 (single isomer, unassigned) [Compound 3]			12.8 (≈ 25.1 µM)																	
COc1ccc2nc(OC)c(C(c3ccccc3)C3(c4cccc5ccccc45)CCN(C)CO3)cc2c1 (single isomer, unassigned) [Compound 4]		20.1 (≈ 39.8 µM)	50.5 (≈ 100 µM)	50.5 (≈ 100 µM)						50.5 (≈ 100 µM)	50.5 (≈ 100 µM)	25.3 (≈ 50.1 µM)	50.5 (≈ 100 µM)	20.1 (≈ 39.8 µM)	1 (≈ 1.98 µM)				50.5 (≈ 100 µM)	
COc1nc2ccc(C)cc2cc1C(c1ccccc1)C1(c2cccc3ccccc23)CCN(C)CO1 (single isomer, unassigned) [Compound 5]		24.5 (≈ 50.1 µM)			48.9 (≈ 100 µM)	48.9 (≈ 100 µM)	8.7 (≈ 17.8 µM)	10.9 (≈ 22.3 µM)	48.9 (≈ 100 µM)							48.9 (≈ 100 µM)	48.9 (≈ 100 µM)	48.9 (≈ 100 µM)	48.9 (≈ 100 µM)	
